Data taken from the NIST ThermoML archive (doi:10.1021/je700521t).

Assay: xn = mol fraction of the nth substance listed
Conditions: 101 kPa, Liquid

CCCCCCCC[n+]1ccn(C)c1.F[B-](F)(F)F [1-methyl-3-octylimidazolium tetrafluoroborate] + CCO
Conditions | mass density [kg/m3] | viscosity [mPa·s]
283.15 K, x2 = 0.081 | 1122.9 | 718.47
283.15 K, x2 = 0.161 | 1118 | 492.73
283.15 K, x2 = 0.315 | 1098.7 | 167.49
283.15 K, x2 = 0.511 | 1064.7 | 51.57
283.15 K, x2 = 0.612 | 1039.7 | 27.12
283.15 K, x2 = 0.753 | 991.3 | 12.45
288.15 K, x2 = 0.081 | 1119.4 | 507.18
288.15 K, x2 = 0.161 | 1114.5 | 354.89
288.15 K, x2 = 0.315 | 1095.2 | 127.69
288.15 K, x2 = 0.511 | 1061.3 | 41.43
288.15 K, x2 = 0.612 | 1036 | 22.05
288.15 K, x2 = 0.753 | 987.5 | 10.36
293.15 K, x2 = 0.081 | 1115.9 | 366.59
293.15 K, x2 = 0.161 | 1111 | 261.54
293.15 K, x2 = 0.315 | 1091.8 | 98.92
293.15 K, x2 = 0.511 | 1057.8 | 35.28
293.15 K, x2 = 0.612 | 1032.2 | 18.24
293.15 K, x2 = 0.753 | 983.6 | 8.79
298.15 K, x2 = 0.081 | 1112.4 | 268.93
298.15 K, x2 = 0.161 | 1107.5 | 194.74
298.15 K, x2 = 0.315 | 1088.3 | 78.63
298.15 K, x2 = 0.511 | 1054.2 | 28.87
298.15 K, x2 = 0.612 | 1028.4 | 15.35
298.15 K, x2 = 0.753 | 979.7 | 7.53
303.15 K, x2 = 0.081 | 1108.9 | 203.35
303.15 K, x2 = 0.161 | 1104 | 150.36
303.15 K, x2 = 0.315 | 1084.8 | 63.33
303.15 K, x2 = 0.511 | 1050.6 | 23.94
303.15 K, x2 = 0.612 | 1024.7 | 12.98
303.15 K, x2 = 0.753 | 975.7 | 6.51
308.15 K, x2 = 0.081 | 1105.5 | 156.29
308.15 K, x2 = 0.161 | 1100.7 | 117.36
308.15 K, x2 = 0.315 | 1081.3 | 51.59
308.15 K, x2 = 0.511 | 1046.9 | 20.13
308.15 K, x2 = 0.612 | 1020.9 | 11.16
308.15 K, x2 = 0.753 | 971.8 | 5.66
313.15 K, x2 = 0.081 | 1102.2 | 123.27
313.15 K, x2 = 0.161 | 1097.3 | 93.2
313.15 K, x2 = 0.315 | 1077.8 | 42.48
313.15 K, x2 = 0.511 | 1043.2 | 17.09
313.15 K, x2 = 0.612 | 1017.2 | 9.61
313.15 K, x2 = 0.753 | 968 | 4.96
318.15 K, x2 = 0.081 | 1098.8 | 97.69
318.15 K, x2 = 0.161 | 1093.9 | 75.37
318.15 K, x2 = 0.315 | 1074.3 | 35.84
318.15 K, x2 = 0.511 | 1039.3 | 14.67
318.15 K, x2 = 0.612 | 1013.4 | 8.39
318.15 K, x2 = 0.753 | 964.1 | 4.38
323.15 K, x2 = 0.081 | 1095.4 | 79.43
323.15 K, x2 = 0.161 | 1090.5 | 61.66
323.15 K, x2 = 0.315 | 1070.9 | 30.38
323.15 K, x2 = 0.511 | 1034.9 | 12.72
323.15 K, x2 = 0.612 | 1009.7 | 7.39
323.15 K, x2 = 0.753 | 960.2 | 3.89
328.15 K, x2 = 0.081 | 1092.1 | 65.03
328.15 K, x2 = 0.161 | 1087.1 | 51.12
328.15 K, x2 = 0.315 | 1067.4 | 26.04
328.15 K, x2 = 0.511 | 1030.3 | 11.1
328.15 K, x2 = 0.612 | 1005.9 | 6.55
328.15 K, x2 = 0.753 | 956.4 | 3.5
333.15 K, x2 = 0.081 | 1088.7 | 54.15
333.15 K, x2 = 0.161 | 1083.7 | 42.99
333.15 K, x2 = 0.315 | 1064 | 22.54
333.15 K, x2 = 0.511 | 1028.7 | 9.77
333.15 K, x2 = 0.612 | 1002.2 | 5.8
333.15 K, x2 = 0.753 | 952.5 | 3.17
338.15 K, x2 = 0.081 | 1085.4 | 45.46
338.15 K, x2 = 0.161 | 1080.3 | 36.47
338.15 K, x2 = 0.315 | 1060.5 | 19.73
338.15 K, x2 = 0.511 | 1025.2 | 8.65
338.15 K, x2 = 0.612 | 998.5 | 5.18
338.15 K, x2 = 0.753 | 948.6 | 2.89
343.15 K, x2 = 0.081 | 1082.1 | 39.03
343.15 K, x2 = 0.161 | 1077 | 31.51
343.15 K, x2 = 0.315 | 1057.1 | 17.42
343.15 K, x2 = 0.511 | 1021.3 | 7.74
343.15 K, x2 = 0.612 | 994.7 | 4.7
343.15 K, x2 = 0.753 | 944.7 | 2.65
